The source of these data is patent publication US7601733B2, “5(S)-(2′-hydroxyethoxy)-20(S)-camptothecin and its preparation and use for the treatment of cancer” (priority 2006, dated 2009).

For data set [1] the following is noted: cited from earlier work.
In the next data set the test system is NCI-H460 xenografts. In words: NCI-H460 xenograft study in nude mice. The data set is classed as in vivo. To be noted: oral, (d×5)2 schedule, deaths/animals. Here is the method:
Protocol of Comparison Study of 5(RS)-(2′-hydroxyethoxy)-20(S)-camptothecin and 5(S)-(2′-hydroxyethoxy)-20(S)-camptothecin Against NCl-H460 Xenograft in Nude Mice:
Ti is the mean tumor volume.
Percentage tumor growth inhibition was calculated using the formula: Percentage Tumor growth inhibition=100−% T/C.
The other parameter observed was mortality.

Data set [2] has as its system Human bone marrow mononuclear cells. In words: Human bone marrow assay (CFU-GM colony inhibition). Type of data set: cell-based. To be noted: relative to 5(R) diastereoisomer. Here is the method: Protocol for Human Bone Marrow Assay:
Methocult™ GF (Cat No: H4534, Poietics, Biowhittakar, USA) medium comprising Methycellulose in Iscove's MDM, Fetal bovine serum, Bovine serum albumin, 2-Mercaptoethanol, L-Glutamine, rhStem cell factor, rhGM-CSF and rhIL-3 was used for the assay. Human bone marrow mononuclear cells (Cat No. 2M-125C, Poietics, Biowhittakar, USA) were mixed with Methocult GF and the cell density was adjusted to 3×10^5 cells/ml. From this preparation, 500 μL aliquots were made and 2.5 μL of 20× drug solution or vehicle was added to each aliquot and mixed thoroughly. 100 μL of clonogenic medium was plated into each well and the plates were allowed to gel at 4° C. for 15 minutes. Plates were incubated at 37° C. in a fully humidified atmosphere of 5% CO2 in an incubator for 14 days. CFU-GM colonies were counted under an inverted microscope as aggregates of 50 cells or more. The percentage colony inhibition was calculated using the following formula: 100−[(number of colonies in drug treated wells/Number of colonies in control wells)×100].
The in vitro potency of the two diastereomers against cancer cell lines had been compared with their in vitro toxicity in healthy cells.

Data set [3] has as its system Saos-2 cells over expressing functional BCRP#4. The data set is classed as cell-based, human. Here is the method:
(§1) Protocol for Breast Cancer Resistance Protein (BCRP) Assay:
(§2) The anticancer effect of 5(S)-(2′-hydroxyethoxy)-20(S)-camptothecin & 5(R)-(2′-hydroxyethoxy)-20(S)-camptothecin were evaluated versus the racemate 5(RS)-(2′-hydroxyethoxy)-20(S)-camptothecin on Saos-2 cells over expressing functional BCRP#4 and non-functional BCRP mut#10. The human osteosarcoma cell line, Saos-2, was obtained from ATCC (American Type Culture Collection, Cat#HTB-85, Manassas, Va.) and were maintained in DMEM containing 10% fetal bovine serum, 1% penicillin/streptomycin, and 2 mM glutamine. Saos-2 cells were transfected with either BCRP#4 to over express functional BCRP or BCRP#10 to over express non-functional BCRP transporter. The cells were plated in 96-well plates at a density of 1000 cells per each well in a 0.1 ml of medium and allowed to attach overnight. The next morning the medium was gently aspirated and serial dilutions of the compounds to be tested were added. The cells were incubated at 37° C. in a 5% CO2 incubator. […] The amount of the fluorescent dye produced was measured on a Cytofluor® 2300(Millipore, Bedford, Mass.) using an excitation wavelength of 530 nm and emission wavelength of 590 nm. The relative fluorescence units obtained were used to calculate the percentage growth at each concentration in relation to the untreated control values. […]

Data set [4] has as its system Saos-2 cells over expressing non-functional BCRP mut#10. Type of data set: cell-based, human. Here is the method:
as §1, §2

Molecules are shown by their SMILES.

On to `CC[C@@]1(O)C(=O)OCc2c1cc1n(c2=O)Cc2cc3ccccc3nc2-1` [camptothecin, Camptothecin], for which, in data set [1], the water solubility entry is on record as “poorly water soluble”.

In the case of `CC[C@@]1(O)C(=O)OCc2c1cc1n(c2=O)C(OCCO)c2cc3ccccc3nc2-1` (mixture of isomers) [4(S)-Ethyl-4-hydroxy-12(RS)-(2-hydroxyethoxy)-1,12-dihydro-4H-2-oxa-6,12a-diaza-dibenzo[b,h]fluorine-3,13-dione, reference compound], the Mortality in the data set on NCI-H460 xenografts (2 mg/kg) and in the data set on NCI-H460 xenografts (4 mg/kg) was 0/5 each time.

Take `CC[C@@]1(O)C(=O)OCc2c1cc1n(c2=O)[C@@H](OCCO)c2cc3ccccc3nc2-1` [4-(S)-Ethyl-4-hydroxy-12(S)-(2-hydroxyethoxy)-1,12-dihydro-4H-2-oxa-6,12a-diazadibenzo[b,h] fluorene-3,13-dione]: the Mortality with NCI-H460 xenografts (2 mg/kg) and with NCI-H460 xenografts (4 mg/kg) was 0/5 each time. The “safety margin (GI90/GI50) compared with that of the 5(R) diastereoisomer” value in data set [2] was “over twice”. Also, the figures for the “fold more cytotoxic than 5(R)-(2′-hydroxyethoxy)-20(S)-camptothecin” value in data set [3] and in data set [4] were above 2.5 fold and around 6 fold, respectively.
